Measurements reported in patent US5760001A, “Cytokine restraining agents and methods of use in pathologies and conditions associated with altered cytokine levels” (Trega Biosciences, Inc., priority 1995, dated 1998).

How the values were obtained:
[1] = tested on: inducible nitric oxide synthase (INOS); experiment: Inducible nitric oxide synthase induction in rat aorta smooth muscle cells (cGMP RIA); type: cell-based; conditions: RASMC induced with LPS, IL-1β or TNF-α; EX-2 0.1 or 1 μM
Description: Rat aorta smooth muscle cells (RASMC) were isolated from male rats (325-350 g) using the previously published procedures of Gelsterfer et al., Circ. Res. 62:749-756 (1988), which is incorporated herein by reference. Cells were positively identified as smooth muscle cells by indirect immunofluorescent staining for anti-α-actin, using a mouse anti-α-actin antibody and anti-mouse IgG FITC conjugate. Cells were grown in T-75 tissue culture flasks (Corning Delbelco's Glass, Inc.; Corning, N.Y.) in 50% F12 and 50% Delbelco's Modified Eagle Medium (DMEM) supplemented with 10% bovine serum, 0.2 g/l L-glutamine, penicillin (100 U/ml) and streptomycin (0.1 mg/ml).
Cells between passages 1-5 were pretreated with one of the following: vehicle, LPS (1 μg/ml), IL-1β (10 U/ml), or TNF-α (100 U/ml) for 6 hr. […] Accumulation of cGMP was determined following exposure to 0.3 mM 3-isobutyl-1-methyl xanthine (IBMX) in the presence or absence of 1 mM L-arginine. […] The HCl extract was analyzed for cGMP by RIA and the NaOH-solubilized cell remnants were used for protein determination.
Male Sprague-Dawley rats were anesthetized with 55 mg/kg pentobarbital IP. […] RASMC were incubated with plasma from control or EX-2-treated animals and the ability of plasma components to inhibit the induction of INOS by LPS or IL-1β was determined as above. […]

adult female Balb/c mice = experiment: LPS-induced lethality (IP dosing); type: in vivo; conditions: 11 × 300 μg/mouse IP (3.3 mg), every 4 hr; 0.6 mg LPS; vs control mice
Description: These experiments were performed based on information reported by Rivier et al., Endocrinology 125:2800-2805 (1989), which is incorporated herein by reference. Adult female Balb/c mice were provided food and water ad libitum. Mice were injected IP every four hr for 40 hr with 30 to 300 μg EX-2, EX-3 or EX-4 in 0.2 ml saline (treated group) or with 0.2 ml saline, alone (control group) (10 mice per group). Immediately following the first injection, 0.6 mg LPS endotoxin in 0.2 ml saline was administered to each mouse. Following LPS injection, EX-2 or saline was administered to the treated mice or the control mice, respectively, every 4 hr for 36 hr.

[2] = tested on: Adult male Sprague-Dawley rats; experiment: Disuse deconditioning (tail suspension) in rats; type: in vivo; conditions: 1 or 5 μg/kg IP twice daily
Description: Adult male Sprague-Dawley rats (355-365 g) were used in this study. Animals were housed individually in standard rat cages and were acclimated on a treadmill for 4 days. The next day, a baseline tail bleed was performed, followed by a maximal treadmill stress test the day after. The day following the stress test, the animals were divided into the appropriate treatment and control groups and the animals were suspended by their tails in suspension cages, which simulates weightlessness and, therefore, deconditions the animals. Another group of control animals was placed in standard rat cages with grated flooring similar to that utilized in the suspension cages. All animals were housed one per cage and supplied with food and water ad libitum. Body weights and food consumptions were measured daily Animals received twice daily IP injections of 1 μg/kg or 5 μg/kg body weight of EX-2 (treated), or 1 ml/kg body weight of saline (control). On day 10, all animals were stress tested on the treadmill until they reached exhaustion. Data on maximum VO2 and running time were collected and compared to pre-suspension results. On day 14, all animals were sacrificed, and blood, tissues, and organs were collected for further analysis. All procedures and tests were performed blind to avoid researcher subjectivity. Statistical significance (p<0.05) between groups was evaluated by ANOVA with Student-Newman-Keuls test for multiple comparisons. All data are reported as the mean±standard error (SE).
All of the animals were subjected to the stress tests, which measured exercise time and maximal VO2. As well, levels of the oxidative enzyme soleus citrate synthase and tibia bone density were measured.
Soleus citrate synthase was attenuated by 50%.

In the case of “Ac-Nle-Gln-His-(D)Phe-Arg-(D)Trp-Gly-NH2 [EX-2]”, the “INOS: cGMP (pmol/100 mg/15 min), % Reduction of induced increase” value [1] is reported as 60%, the “Inhibition of LPS-induced Lethality (increase in survival)” value (adult female Balb/c mice) is reported as 83% and the “Soleus Citrate Synthase, % Attenuation of suspension-induced decrease” value ([2]; 14 days suspension) is reported as 50%. The “Tibia Bone Density, % Attenuation of suspension-induced decrease” value ([2]; 14 days suspension) was 50%, the “Exercise Time, % Attenuation of suspension-induced decrease” value ([2]; treadmill stress test day 10) was 44% and the “Maximal VO2, % Attenuation of suspension-induced decrease” value ([2]; treadmill stress test day 10) was 80%.
